Test results taken from ChEMBL document CHEMBL2364335, “Structure-activity relationship data for chemical series of achiral agonists of the ghrelin (growth hormone secretagogue) receptor (Supplementary Bioactivity Data for publication CHEMBL1140573)”.

Target: Growth hormone secretagogue receptor type 1 (Homo sapiens, UniProt Q92847)
Experiment: SUPPLEMENTARY: Agonist activity at GSHR by FLIPR assay. Same assay as CHEMBL941945
Type: functional

Chain of Growth hormone secretagogue receptor type 1 (Q92847 whole entry): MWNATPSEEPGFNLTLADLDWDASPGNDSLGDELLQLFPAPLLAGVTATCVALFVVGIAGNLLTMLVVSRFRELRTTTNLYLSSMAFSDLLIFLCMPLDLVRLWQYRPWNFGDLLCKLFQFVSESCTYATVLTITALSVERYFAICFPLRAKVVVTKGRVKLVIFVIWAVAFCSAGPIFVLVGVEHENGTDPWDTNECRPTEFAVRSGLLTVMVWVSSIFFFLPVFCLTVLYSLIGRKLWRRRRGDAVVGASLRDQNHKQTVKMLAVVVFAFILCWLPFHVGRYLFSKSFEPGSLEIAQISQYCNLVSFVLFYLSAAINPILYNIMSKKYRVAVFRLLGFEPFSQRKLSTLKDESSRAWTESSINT

Row | EC50 [nM] | SMILES
1 | 31.6 | Cc1ccc(-c2ccc(S(=O)(=O)Nc3ccnc(N4C[C@@H](C)N[C@@H](C)C4)n3)cc2F)o1
2 | 15.8 | CC(C)Oc1ccc(N2C[C@@H](C)N[C@@H](C)C2)cc1NS(=O)(=O)c1ccc(-c2cccs2)cc1
3 | 50.1 | COc1ccc(N2C[C@@H](C)N[C@@H](C)C2)cc1NS(=O)(=O)c1cccc(-c2cc(C)cs2)c1
4 | 20 | C[C@@H]1CN(c2ccc(F)c(NS(=O)(=O)c3ccc(-c4cccs4)cc3F)c2)C[C@H](C)N1
5 | 39.8 | COc1ccc(NS(=O)(=O)c2ccc(-c3cnco3)s2)cc1N1C[C@@H](C)N[C@@H](C)C1
6 | 2.51 | COc1ccc(N2C[C@@H](C)N[C@@H](C)C2)cc1NS(=O)(=O)c1ccc(-c2csc(C)c2)cc1F
7 | 39.8 | COc1ccc(N2C[C@@H](C)N[C@@H](C)C2)cc1NS(=O)(=O)c1cccc(-c2ccoc2)c1
8 | 1.26 | COc1ccc(NS(=O)(=O)c2ccc(-c3cc(C)cs3)cc2)cc1N1C[C@@H](C)N[C@@H](C)C1
9 | 0.501 | COc1ccc(N2C[C@@H](C)N[C@@H](C)C2)cc1NS(=O)(=O)c1ccc(-c2cc(C)cs2)cc1F
10 | 15.8 | COc1ccc(N2C[C@@H](C)N[C@@H](C)C2)cc1NS(=O)(=O)c1cccc(Cl)c1Cl
11 | 39.8 | COc1ccc(N2C[C@@H](C)N[C@@H](C)C2)cc1NS(=O)(=O)c1ccc(-c2csc(C)n2)s1
12 | 2 | COc1ccc(NS(=O)(=O)c2ccc(-c3cccs3)s2)cc1N1C[C@@H](C)N[C@@H](C)C1
13 | 20 | COc1cc(-c2cccs2)ccc1S(=O)(=O)Nc1cccc(N2C[C@@H](C)N[C@@H](C)C2)c1
14 | 39.8 | COc1ccc(NS(=O)(=O)c2ccc(-c3cnco3)cc2)cc1N1C[C@@H](C)N[C@@H](C)C1
15 | 39.8 | COc1ccc(NS(=O)(=O)c2ccc(Br)c(C)c2)cc1N1C[C@@H](C)N[C@@H](C)C1
16 | 31.6 | COc1ccc(NS(=O)(=O)c2cccc3ccccc23)cc1N1C[C@@H](C)N[C@@H](C)C1
17 | 63.1 | Cc1cc(S(=O)(=O)Nc2cc(N3C[C@@H](C)N[C@@H](C)C3)ccc2F)ccc1Br
18 | 25.1 | C[C@@H]1CN(c2ccc(F)c(NS(=O)(=O)c3ccc(-c4ccoc4)cc3)c2)C[C@H](C)N1
19 | 15.8 | COc1ccc(NS(=O)(=O)c2ccc3ccccc3c2)cc1N1C[C@@H](C)N[C@@H](C)C1
20 | 31.6 | COc1ccc(NS(=O)(=O)c2ccc(-c3cccc(F)c3F)cc2)cc1N1C[C@@H](C)N[C@@H](C)C1
21 | 1.26 | Cc1csc(-c2ccc(S(=O)(=O)Nc3cc(N4C[C@@H](C)N[C@@H](C)C4)ccc3C)cc2)c1

Row | EC50 [nM] | SMILES
22 | 15.8 | COc1ccc(N2C[C@@H](C)N[C@@H](C)C2)cc1NS(=O)(=O)c1cc(F)c(-c2ccco2)cc1F
23 | 20 | C[C@@H]1CN(c2ccc(F)c(NS(=O)(=O)c3ccc(-c4ccoc4)cc3Cl)c2)C[C@H](C)N1
24 | 15.8 | COc1ccc(N2C[C@@H](C)N[C@@H](C)C2)cc1NS(=O)(=O)c1ccc(-c2ccco2)nc1
25 | 50.1 | COc1ccc(N2C[C@@H](C)N[C@@H](C)C2)cc1NS(=O)(=O)c1ccc(Cl)c2ccccc12
26 | 158 | COc1ccc(N2C[C@@H](C)N[C@@H](C)C2)cc1NS(=O)(=O)c1cccc(Br)c1
27 | 79.4 | COc1ccc(N2C[C@@H](C)N[C@@H](C)C2)cc1NS(=O)(=O)c1ccc2c(c1)OCCN2C
28 | 100 | Cc1ccc(N2C[C@@H](C)N[C@@H](C)C2)cc1NS(=O)(=O)c1ccc(Br)cc1
29 | 10 | Cc1ccc(-c2ccc(S(=O)(=O)Nc3cc(N4C[C@@H](C)N[C@@H](C)C4)c[nH]c3=O)cc2F)o1
30 | 15.8 | COc1ccc(NS(=O)(=O)/C=C/c2ccccc2)cc1N1C[C@@H](C)N[C@@H](C)C1
31 | 15.8 | C[C@@H]1CN(c2cccc(NS(=O)(=O)c3ccc4ccccc4c3)c2)C[C@H](C)N1
32 | 12.6 | COc1ccc(N2C[C@@H](C)N(C)[C@@H](C)C2)cc1NS(=O)(=O)c1ccc(-c2cccs2)cc1
33 | 0.631 | COc1ccc(NS(=O)(=O)c2ccc(-c3cccc(C)n3)s2)cc1N1C[C@@H](C)N[C@@H](C)C1
34 | 1.58 | C[C@@H]1CN(c2ccc(Cl)c(NS(=O)(=O)c3ccc(-c4ccco4)cc3)c2)C[C@H](C)N1
35 | 15.8 | C[C@@H]1CN(c2ccc(F)c(NS(=O)(=O)c3ccc(-c4ccoc4)c(F)c3)c2)C[C@H](C)N1
36 | 6.31 | COc1ccc(NS(=O)(=O)c2ccc(-n3cccn3)cc2)cc1N1C[C@@H](C)N[C@@H](C)C1
37 | 7.94 | COc1ccc(N2C[C@@H](C)N[C@@H](C)C2)cc1NS(=O)(=O)c1ccc2ccccc2c1
38 | 7.94 | COc1ccc(N2C[C@@H](C)N[C@@H](C)C2)cc1NS(=O)(=O)c1ccc(-c2ccoc2)cc1
39 | 7.94 | COc1ccc(N2C[C@@H](C)N[C@@H](C)C2)cc1NS(=O)(=O)c1ccc(-c2ccc(C)o2)nc1
40 | 12.6 | COc1ccc(NS(=O)(=O)c2ccc(-c3ccoc3)cc2)cc1N1C[C@@H](C)N[C@@H](C)C1
41 | 10 | COc1ccc(N2C[C@@H](C)N[C@@H](C)C2)cc1NS(=O)(=O)c1cccc2cccc(Cl)c12
42 | 79.4 | COc1ccc(NS(=O)(=O)c2ccc(-c3ccc(C)cc3)cc2)cc1N1C[C@@H](C)N[C@@H](C)C1

Row | EC50 [nM] | SMILES
43 | 2.51 | COc1ccc(N2C[C@@H](C)N[C@@H](C)C2)cc1NS(=O)(=O)c1ccc(-c2cccc(Cl)c2)cc1
44 | 0.398 | COc1ccc(N2C[C@@H](C)N[C@@H](C)C2)cc1NS(=O)(=O)c1ccc(-c2cc(C)cs2)cc1C
45 | 1 | Cc1ccc(-c2ccc(S(=O)(=O)Nc3cccc(N4C[C@@H](C)N[C@@H](C)C4)n3)cc2F)o1
46 | 398 | COc1ccc(NS(=O)(=O)c2cccc3cccnc23)cc1N1C[C@@H](C)N[C@@H](C)C1
47 | 100 | COc1ccc(NS(=O)(=O)c2ccc(-c3ccccc3C)cc2)cc1N1C[C@@H](C)N[C@@H](C)C1
48 | 31.6 | Cc1cc(-c2ccoc2)ccc1S(=O)(=O)Nc1cc(N2C[C@@H](C)N[C@@H](C)C2)ccc1F
49 | 2 | COc1ccc(N2C[C@@H](C)N[C@@H](C)C2)cc1NS(=O)(=O)c1ccc(-c2csc(C)c2)c(F)c1
50 | 1 | COc1ccc(NS(=O)(=O)c2ccc(-c3ccccc3)s2)cc1N1C[C@@H](C)N[C@@H](C)C1
51 | 15.8 | COc1ccc(N2C[C@@H](C)N[C@@H](C)C2)cc1NS(=O)(=O)c1cccc(-c2cccs2)c1
52 | 10 | COc1ccc(N2C[C@@H](C)N[C@@H](C)C2)cc1NS(=O)(=O)c1csc2ccccc12
53 | 10 | COc1ccc(N2C[C@@H](C)N[C@@H](C)C2)cc1NS(=O)(=O)c1ccc(-c2cccc(C)n2)cc1
54 | 5.01 | COc1ccc(N2C[C@@H](C)N[C@@H](C)C2)cc1NS(=O)(=O)c1ccc(-c2ccsc2)cc1C
55 | 100 | COc1ccc(N2C[C@@H](C)N[C@@H](C)C2)cc1NS(=O)(=O)c1ccc(-c2cccnc2)cc1
56 | 7.94 | COc1cc(F)c(N2C[C@@H](C)N[C@@H](C)C2)cc1NS(=O)(=O)c1ccc(-c2cccs2)cc1
57 | 63.1 | COc1ccc(NS(=O)(=O)c2ccc(Cl)c(Cl)c2)cc1N1C[C@@H](C)N[C@@H](C)C1
58 | 1 | COc1ccc(NS(=O)(=O)c2ccc(-c3cccs3)cc2)cc1N1C[C@@H](C)N[C@@H](C)C1
59 | 1.58 | COc1ccc(N2C[C@@H](C)N[C@@H](C)C2)cc1NS(=O)(=O)c1ccc(-c2ccco2)cc1F
60 | 20 | Cc1cc(-c2cccs2)ccc1S(=O)(=O)Nc1cc(N2C[C@@H](C)N[C@@H](C)C2)ccc1F
61 | 25.1 | COc1ccc(NS(=O)(=O)c2ccc(-c3c(C)cccc3C)s2)cc1N1C[C@@H](C)N[C@@H](C)C1
